Test results: the CheMixHub viscosity set

Assay: xn = mol fraction of the nth substance listed

CC(C)O + CCCO
viscosity [mPa·s], 101 kPa
Details	293.15 K	298.15 K	303.15 K	313.15 K	323.15 K
x2 = 0.1001	2.369	–	1.776	1.349	1.048
x2 = 0.172	–	2.066	–	–	–
x2 = 0.2006	2.359	–	1.777	1.36	1.066
x2 = 0.2956	2.344	–	1.773	1.365	1.077
x2 = 0.33	–	1.997	–	–	–
x2 = 0.3999	2.322	–	1.766	1.368	1.084
x2 = 0.4993	2.3	–	1.758	1.368	1.086
x2 = 0.5	–	2.02	–	–	–
x2 = 0.6	2.278	–	1.75	1.367	1.088
x2 = 0.665	–	1.985	–	–	–
x2 = 0.6973	2.258	–	1.744	1.368	1.089
x2 = 0.754	–	1.985	–	–	–
x2 = 0.7993	2.238	–	1.739	1.368	1.091
x2 = 0.826	–	1.972	–	–	–
x2 = 0.8994	2.219	–	1.734	1.369	1.096

CCOC(=O)c1ccccc1 + CCCCO
viscosity [mPa·s], 101.3 kPa
Details	x1 = 0.0664	x1 = 0.1379	x1 = 0.2152	x1 = 0.299	x1 = 0.3901	x1 = 0.4897	x1 = 0.5988	x1 = 0.719	x1 = 0.852
303 K	2.029	2.002	1.967	1.935	1.902	1.874	1.839	1.809	1.78
308 K	1.87	1.837	1.814	1.783	1.754	1.713	1.679	1.646	1.618
313 K	1.599	1.582	1.567	1.559	1.54	1.52	1.499	1.484	1.47
318 K	1.444	1.439	1.426	1.42	1.407	1.4	1.39	1.381	1.372
323 K	1.324	1.318	1.309	1.301	1.29	1.284	1.274	1.269	1.259

Cc1ccccc1[N+](=O)[O-] + Cc1cccc(C)c1
308.15 K, 101.33 kPa
Details	viscosity [mPa·s]
x2 = 0.1014	1.358
x2 = 0.2022	1.154
x2 = 0.3044	1.027
x2 = 0.4036	0.938
x2 = 0.499	0.87
x2 = 0.6052	0.792
x2 = 0.6913	0.735
x2 = 0.8068	0.654
x2 = 0.8993	0.596

CC1CCCCC1 + CCC(C)O
viscosity [mPa·s], 100 kPa
Details	x1 = 0.0811	x1 = 0.16	x1 = 0.24	x1 = 0.35	x1 = 0.4401	x1 = 0.56	x1 = 0.6501	x1 = 0.7401	x1 = 0.8492	x1 = 0.94
293.15 K	2.84	2.24	1.78	1.36	1.15	0.99	0.95	0.92	0.87	0.79
298.15 K	2.4	1.91	1.53	1.17	–	0.88	0.84	0.81	0.79	0.74
303.15 K	2.02	1.63	1.31	1.02	0.88	0.79	0.76	0.74	0.73	0.69
308.15 K	1.72	1.42	1.18	0.95	0.83	0.74	0.71	0.69	0.67	0.64
313.15 K	1.48	1.23	1.04	0.85	0.76	0.69	0.67	0.65	0.63	0.6
318.15 K	1.27	1.07	0.91	0.76	0.69	0.64	0.62	0.61	0.59	0.56
323.15 K	1.11	0.94	0.81	0.69	0.63	0.59	0.58	0.58	0.56	0.53

O=C(O)c1cccc([N+](=O)[O-])c1 + CCCO
viscosity [mPa·s], 101 kPa
Details	x1 = 0.219	x1 = 0.22	x1 = 0.244	x1 = 0.261	x1 = 0.2797	x1 = 0.2805
318.15 K	3.007	3.007	3.286	3.62	3.951	3.95
323.15 K	2.632	–	–	–	–	3.456
